Test results as given in patent US9880154B2, “Method for screening drugs and animal model for same” (priority 2014, dated 2018).
Where a name gives a salt, the structure may show the parent alone.

Assays:
Sarcocystis neurona = experiment: Production of persistent parasitemia in a horse challenged with S. neurona (autologous leukocyte model); format: in vivo
Description: In a first preferred embodiment a parasite population was isolated from horses as described in an experimental model (Experimental infection of horses with culture derived Sarcocystis neurnoa merozoites as a model for equine protozoal myeloencephalitis, 2004) and used to infect a yearling thoroughbred filly. The challenge (6000 organisms/day) was used daily for 10 days. Concurrent with the challenge infection the filly was administered 1 mg/kg levamisole HCl orally for 21 days. […] Daily blood samples were taken and 5 microliters of blood were used to prepare thin layer smears followed by staining with Geimsa. Ten fields were counted to determine the presence of S. neurona. A hemocytometer was used to determine the number of parasites per ml of peripheral blood. […] At the end of fourteen days the filly was treated with decoquinate orally at 0.5 mg/kg for 10 days.

S. neurona = conditions: 1 mg/kg
Description: Field cases of idiopathic encephalitis associated with EPM due to S. neurona were identified by veterinary clinical examination. […] Signs were assessed by the Field Veterinarian by a neurological examination of gait and scored on a scale of 1-5. Attributable data was obtained from 27 Field Veterinarians. Thirty-three animals were included into the study, missing data from 21 horses prevented inclusion of these 21 animals into the study analysis. In the included data set, one Field Veterinarian submitted data for 6 animals, one Field Veterinarian submitted data from two animals, and 25 veterinarians submitted data for one animal.
Horses were evaluated for a change in gait score by subtracting the gait score after treatment from the gait score before treatment.

[1] = horses, 5 mg/kg (2800 mg) orally, at one hour; reportedly; cited from earlier work
[2] = Day 30, levamisole HCl 1 mg/kg orally 21 days, decoquinate 0.5 mg/kg orally 10 days from end of day 14
[3] = Day 14, 1 mg/kg orally for 21 days concurrent with challenge

SMILES | visible parasites in the blood (Sarcocystis neurona; Day 30, decoquinate orally 0.5 mg/kg for 10 days from end of day 14, after levamisole HCl 1 mg/kg for 21 days) | clinical signs of disease (Sarcocystis neurona; [2]) | parasitemia (Sarcocystis neurona; Day 10, in the serum, 1 mg/kg orally for 21 days concurrent with challenge) | clinical signs of disease (Sarcocystis neurona; Day 10, yearling filly, challenge 6000 organisms/day for 10 days, 1 mg/kg orally for 21 days) | clinical signs of disease (Sarcocystis neurona; [3]) | parasitemia (Sarcocystis neurona; [3]) | animals with gait score worse or not changed after treatment (S. neurona; 33 horses) [%] | horses with gait score improved by at least one grade after treatment (S. neurona; 33 horses with signs of EPM not resolved with conventional treatment) [%] | plasma level [1] [ng/mL]
CCCCCCCCCCOc1cc2c(O)c(C(=O)OCC)cnc2cc1OCC [decoquinate] | no visible parasites in the blood | no clinical signs of disease | – | – | – | – | – | – | –
c1ccc([C@H]2CN3CCSC3=N2)cc1 [levamisole HCl] | – | no clinical signs of disease | one million | no clinical signs | no clinical signs of disease | one million | 18 | 82 | 485
